Tests used:
MCF7 [1] = assay: Cytotoxicity against human MCF7 cells assessed as cell growth inhibition up to 10 uM measured after 24 to 72 hrs by MTT assay relative to control; assay type: functional; conditions: dose microM <=10; time 24-72 hrs
SF-268 [2] = assay: Cytotoxicity against human SF-268 cells assessed as cell growth inhibition up to 10 uM measured after 24 to 72 hrs by MTT assay relative to control; assay type: functional; conditions: dose microM <=10; time 24-72 hrs
PC-3 [3] = assay: Cytotoxicity against human PC-3 cells assessed as cell growth inhibition up to 10 uM measured after 24 to 72 hrs by MTT assay relative to control; assay type: functional; conditions: dose microM <=10; time 24-72 hrs
WI-38 [4] = assay: Cytotoxicity against human WI-38 cells assessed as cell growth inhibition up to 10 uM measured after 24 to 72 hrs by MTT assay relative to control; assay type: cell-based; conditions: time 24-72 hrs
NCI-H460 [5] = assay: Cytotoxicity against human NCI-H460 cells assessed as cell growth inhibition up to 10 uM measured after 24 to 72 hrs by MTT assay relative to control; assay type: functional; conditions: dose microM <=10; time 24-72 hrs
SF-268 [6] = assay: Cytotoxicity against human SF-268 cells assessed as cell growth inhibition measured after 24 to 72 hrs by MTT assay; assay type: functional, cell-based
WI-38 [7] = assay: Cytotoxicity against human WI-38 cells assessed as cell growth inhibition measured after 24 to 72 hrs by MTT assay; assay type: cell-based
MCF7 [8] = assay: Cytotoxicity against human MCF7 cells assessed as cell growth inhibition measured after 24 to 72 hrs by MTT assay; assay type: functional, cell-based
NCI-H460 [9] = assay: Cytotoxicity against human NCI-H460 cells assessed as cell growth inhibition measured after 24 to 72 hrs by MTT assay; assay type: functional, cell-based
PC-3 [10] = assay: Cytotoxicity against human PC-3 cells assessed as cell growth inhibition measured after 24 to 72 hrs by MTT assay; assay type: functional, cell-based
NCI-H460 [11] = assay: Cytotoxicity against human NCI-H460 cells assessed as cell growth inhibition measured after 24 to 72 hrs in presence of 5beta,6beta-epoxy-2,3-dihydrophysalin C-3beta-O-sulfate by MTT assay; assay type: functional, cell-based
MCF7 [12] = assay: Cytotoxicity against human MCF7 cells assessed as cell growth inhibition measured after 24 to 72 hrs in presence of 5beta,6beta-epoxy-2,3-dihydrophysalin C-3beta-O-sulfate by MTT assay; assay type: functional, cell-based
SF-268 [13] = assay: Cytotoxicity against human SF-268 cells assessed as cell growth inhibition measured after 24 to 72 hrs in presence of 5beta,6beta-epoxy-2,3-dihydrophysalin C-3beta-O-sulfate by MTT assay; assay type: functional, cell-based
WI-38 [14] = assay: Cytotoxicity against human WI-38 cells assessed as cell growth inhibition measured after 24 to 72 hrs in presence of 5beta,6beta-epoxy-2,3-dihydrophysalin C-3beta-O-sulfate by MTT assay; assay type: cell-based
PC-3 [15] = assay: Cytotoxicity against human PC-3 cells assessed as cell growth inhibition measured after 24 to 72 hrs in presence of 5beta,6beta-epoxy-2,3-dihydrophysalin C-3beta-O-sulfate by MTT assay; assay type: functional, cell-based
SF-268 [16] = assay: Cytotoxicity against human SF-268 cells assessed as cell growth inhibition measured after 24 to 72 hrs in presence of 2,3-dihydrophysalin F-3beta-O-sulfate by MTT assay; assay type: functional, cell-based
PC-3 [17] = assay: Cytotoxicity against human PC-3 cells assessed as cell growth inhibition measured after 24 to 72 hrs in presence of 2,3-dihydrophysalin F-3beta-O-sulfate by MTT assay; assay type: functional, cell-based
NCI-H460 [18] = assay: Cytotoxicity against human NCI-H460 cells assessed as cell growth inhibition measured after 24 to 72 hrs in presence of 2,3-dihydrophysalin F-3beta-O-sulfate by MTT assay; assay type: functional, cell-based
MCF7 [19] = assay: Cytotoxicity against human MCF7 cells assessed as cell growth inhibition measured after 24 to 72 hrs in presence of 2,3-dihydrophysalin F-3beta-O-sulfate by MTT assay; assay type: functional, cell-based
WI-38 [20] = assay: Cytotoxicity against human WI-38 cells assessed as cell growth inhibition measured after 24 to 72 hrs in presence of 2,3-dihydrophysalin F-3beta-O-sulfate by MTT assay; assay type: cell-based
MCF7 [21] = assay: Cytotoxicity against human MCF7 cells assessed as cell growth inhibition measured after 24 hrs by MTT assay; assay type: functional, cell-based; conditions: MCF7, 24 h
PC-3 [22] = assay: Cytotoxicity against human PC-3 cells assessed as cell growth inhibition measured after 24 hrs by MTT assay; assay type: functional, cell-based; conditions: PC-3, 24 h

| Compound | growth inhibition (GI) (MCF7 [1]) | growth inhibition (GI) (SF-268 [2]) | growth inhibition (GI) (PC-3 [3]) | growth inhibition (GI) (WI-38 [4]) | growth inhibition (GI) (NCI-H460 [5]) | IC50 (SF-268 [6]) | IC50 (WI-38 [7]) | IC50 (MCF7 [8]) | IC50 (NCI-H460 [9]) | IC50 (PC-3 [10]) | further results |
| --- | --- | --- | --- | --- | --- | --- | --- | --- | --- | --- | --- |
| CO[C@]12CC=CC(=O)[C@]1(C)[C@H]1CC[C@@]3(O)C(=O)O[C@@]4(C)[C@H]5C[C@]6(C)[C@@H](CO[C@@]7(O[C@]34[C@H]6C7=O)[C@@H]1C[C@H]2O)C(=O)O5 | <50% | <50% | <50% | < 50% | <50% | – | – | – | – | – | – |
| C[C@@]12C[C@H]3OC(=O)[C@@H]1CO[C@]14O[C@]5([C@H]2C1=O)[C@@](O)(CC[C@H]1[C@H]4C[C@@H](O)[C@@]2(Cl)CC=CC(=O)[C@]12C)C(=O)O[C@@]35C | – | – | – | – | – | 800 nM | 3900 nM | 2100 nM | 600 nM | 1000 nM | – |
| C[C@@]12C[C@H]3OC(=O)[C@@H]1CO[C@]14O[C@@]5([C@H]2C1=O)[C@@]3(C)OC(=O)[C@@]5(O)CC[C@H]1[C@H]4C[C@@H](O)[C@@]2(O)CC=CC(=O)[C@]12C | <50% | <50% | <50% | < 50% | <50% | – | – | – | – | – | – |
| C=C1C(=O)O[C@@H]2C[C@@]1(C)[C@@H]1C(=O)[C@]3(O)O[C@@]14[C@@](O)(CC[C@H]1[C@H]3C[C@@H](O)[C@@]3(Cl)CC=CC(=O)[C@]13C)C(=O)O[C@@]24C | – | – | – | – | – | 500 nM | 3200 nM | 1200 nM | 600 nM | 800 nM | – |
| C[C@@]12C[C@H]3OC(=O)[C@@H]1CO[C@]14O[C@]5([C@H]2C1=O)[C@@](O)(CC[C@H]1[C@H]4C[C@H]2O[C@]24C[C@@H](OS(=O)(=O)O)CC(=O)[C@]14C)C(=O)O[C@@]35C | – | – | – | – | – | – | – | – | – | – | IC50 (NCI-H460 [11]): 2000 nM; IC50 (MCF7 [12]): > 7200 nM; IC50 (SF-268 [13]): 2400 nM; IC50 (WI-38 [14]): > 10000 nM; IC50 (PC-3 [15]): 2600 nM |
| C=C1C(=O)O[C@@H]2C[C@@]1(C)[C@@H]1C(=O)[C@]3(O)O[C@@]14[C@@](O)(CC[C@H]1[C@H]3C[C@H]3O[C@]35C[C@@H](OS(=O)(=O)O)CC(=O)[C@]15C)C(=O)O[C@@]24C | – | – | – | – | – | – | – | – | – | – | IC50 (SF-268 [16]): 2400 nM; IC50 (PC-3 [17]): 2600 nM; IC50 (NCI-H460 [18]): 2000 nM; IC50 (MCF7 [19]): > 7200 nM; IC50 (WI-38 [20]): > 10000 nM |
| C/C(=C1/C(=O)C[C@H]2[C@@H]3[C@@H]4O[C@@H]4[C@@]4(O)CC=CC(=O)[C@]4(C)[C@H]3CC(=O)[C@]12C)[C@H]1C[C@]2(C)O[C@]2(C)C(=O)O1 | – | – | – | – | – | 7200 nM | > 10000 nM | > 10000 nM | 6500 nM | 2300 nM | IC50 (MCF7 [21]): > 100000 nM; IC50 (PC-3 [22]): 68000 nM |
| CC(=O)O[C@]12O[C@@]34[C@@H](C1=O)[C@]1(C)C[C@@H](OC(=O)[C@H]1C)[C@]3(C)OC(=O)[C@]4(O)CC[C@H]1[C@H]2C[C@H]2O[C@]23CCCC(=O)[C@]13C | <50% | <50% | <50% | < 50% | <50% | – | – | – | – | – | – |
| CO[C@@H]1CC(=O)[C@]2(C)[C@H]3CC[C@@]4(O)C(=O)O[C@@]5(C)[C@H]6C[C@]7(C)[C@@H](CO[C@@]8(O[C@]45[C@H]7C8=O)[C@@H]3C[C@H]3O[C@]32C1)C(=O)O6 | <50% | <50% | <50% | < 50% | <50% | – | – | – | – | – | – |
| C=C1C(=O)O[C@@H]2C[C@@]1(C)[C@@H]1C(=O)[C@]3(O)O[C@@]14[C@@](O)(CC[C@H]1[C@H]3C[C@H]3O[C@]35CC=CC(=O)[C@]15C)C(=O)O[C@@]24C | – | – | – | – | – | 900 nM | 3900 nM | 1700 nM | 1200 nM | 1000 nM | – |
| C[C@@H]1C(=O)O[C@@H]2C[C@@]1(C)[C@@H]1C(=O)[C@]3(O)O[C@@]14[C@@](O)(CC[C@H]1[C@H]3C[C@H]3O[C@]35CCCC(=O)[C@]15C)C(=O)O[C@@]24C | <50% | <50% | <50% | < 50% | <50% | – | – | – | – | – | – |
| C[C@@]12C[C@H]3OC(=O)[C@@H]1CO[C@]14O[C@@]5([C@H]2C1=O)[C@@]3(C)OC(=O)[C@@]5(O)CC[C@H]1[C@H]4C[C@H]2O[C@]23CC=CC(=O)[C@]13C | – | – | – | – | – | 500 nM | 3500 nM | 600 nM | 1000 nM | 1000 nM | – |
| COc1cccc2c1C(=O)c1c(O)c3c(c(O)c1C2=O)C[C@@](O)(C(=O)CO)C[C@@H]3O[C@H]1C[C@H](N)[C@H](O)[C@H](C)O1 [DOXORUBICIN] | – | – | – | – | – | 500 nM | – | – | – | – | – |
| C[C@]12C(=O)C=CCC1=CC[C@@H]1[C@@H]2CC[C@]2(O)C(=O)O[C@@]3(C)[C@H]4C[C@]5(C)[C@@H](CO[C@@]16O[C@@]32[C@H]5C6=O)C(=O)O4 [PHYSALIN B] | – | – | – | – | – | 600 nM | 3300 nM | 1000 nM | 900 nM | 1000 nM | – |

— ChEMBL document CHEMBL4813956, “Cytotoxic Physalins from Aeroponically Grown Physalis acutifolia” (J Nat Prod, 2021)
